Counter-ions that a name gives are not always drawn. Like-named read-outs stand apart in the source and are kept apart here.
Key:
[1] = test system: DID-labelled SFV hemifusion/fusion; format: cell-based, Semliki Forest virus; settings: HeLa Kyoto, 10 μM (20 μM Raloxifene; Bafilomycin 100 nM), 40 min at 37 °C
[2] = test system: SFV; assay: microbe, parasite or virus in culture; format: cell-based, Semliki Forest virus; settings: for IC50 / inhibition at 10 µM: Semliki Forest virus; for IC50: HeLa Kyoto, read-out: IC50 SFV (7 h); for inhibition at 10 µM: M-HeLa, 7 h, read-out: % inhibition (SFV screen)
[3] = test system: DENV-2; assay: DENV-2 infection assay / secondary screen (E protein staining); format: cell-based, dengue virus serotype 2; settings: Dengue virus, DENV2, Huh-7, 24 h; for inhibition at 10 µM: read-out: % inhibition (DENV-2 screen)
[4] = test system: SINV; assay: microbe, parasite or virus in culture; format: cell-based, Sindbis virus; settings: Sindbis virus, HeLa Kyoto, read-out: IC50 SINV
[5] = test system: DENV-1; assay: microbe, parasite or virus in culture; format: cell-based, dengue virus; settings: Dengue virus, DENV1, Huh-7, read-out: IC50 DENV-1
[6] = test system: DENV-3; assay: microbe, parasite or virus in culture; format: cell-based, dengue virus; settings: Dengue virus, DENV3, Huh-7, read-out: IC50 DENV-3
[7] = test system: ZIKV; assay: microbe, parasite or virus in culture; format: cell-based, Zika virus; settings: for IC50: Zika virus, Huh-7, read-out: IC50 ZIKV
[8] = test system: YF17D; assay: organism not typed; format: cell-based, yellow fever 17D; settings: Huh-7, read-out: IC50 YF17D
[9] = test system: HCV; assay: microbe, parasite or virus in culture; format: cell-based, hepatitis C virus; settings: Hepatitis C virus, Huh7.5, read-out: IC50 HCV
[10] = test system: VSV VLP; assay: microbe, parasite or virus in culture; format: cell-based, vesicular stomatitis virus; settings: Vesicular stomatitis virus, HeLa Kyoto, 24 h, read-out: IC50 VSV
[11] = test system: RABV VLP; assay: microbe, parasite or virus in culture; format: cell-based, rabies virus; settings: for IC50: Lyssavirus rabies, HeLa Kyoto, 24 h, read-out: IC50 RABV
[12] = test system: H5N1 VLP; assay: microbe, parasite or virus in culture; format: cell-based, influenza H5N1; settings: for IC50: Influenza A virus, H5N1, HeLa Kyoto, 48 h, read-out: IC50 H5N1
[13] = test system: EBOV VLP; assay: microbe, parasite or virus in culture; format: cell-based, Ebola virus; settings: for IC50: Zaire ebolavirus, HeLa Kyoto, 48 h, read-out: IC50 EBOV
[14] = test system: HIV-1; assay: microbe, parasite or virus in culture; format: cell-based, human immunodeficiency virus type 1; settings: for IC50 HIV: virus, HeLa TZM-bl, 24 h; for IC50: Human immunodeficiency virus 1, 24 h, read-out: IC50 HIV
[15] = test system: HSV-1; assay: microbe, parasite or virus in culture; format: cell-based, herpes simplex virus 1; settings: 8 h; for IC50 HSV (Vero): virus, Vero cells; for IC50: Human alphaherpesvirus 1, Vero, read-out: IC50 HSV (Vero)
[16] = test system: VACV; assay: microbe, parasite or virus in culture; format: cell-based, vaccinia virus; settings: for IC50: Orthopoxvirus vaccinia, HeLa Kyoto, 8 h, read-out: IC50 VACV
[17] = test system: SFV; format: cell-based, Semliki Forest virus
[18] = test system: viruses/VLPs tested; format: cell-based
[19] = test system: HeLa Kyoto cells; settings: human
[20] = in vitro; settings: human, % viability (SFV screen)
[21] = in vitro; settings: human
[22] = test system: Huh7 cells; assay: MTT assay, Huh7 cells; settings: for TC50 DENV-2 (7 + 17 h): Huh7, compounds 7 h then compound-free media 17 h; for TC50 DENV-2 (24 h): Huh7, compounds 24 h
[23] = test system: SFV E1 trimer formation; settings: HeLa Kyoto, MOI 100; Chloroquine 100 μM
[24] = test system: VSV_Blam_VLP fusion; assay: microbe, parasite or virus in culture; format: cell-based; settings: Vesicular stomatitis virus, HeLa Kyoto, read-out: Inhibition of VSV_Blam_VLP fusion compared to DMSO controls
[25] = test system: Renilla luciferase expression (protein synthesis); format: cell-based
[26] = test system: Huh7 cells; settings: human
[27] = test system: HeLa Kyoto cells; settings: human, 10 µM
[28] = read-out: IC50 DENV-2 (7 + 17 h)

CO/C1=C\C(C)=C\[C@@H](C)[C@@H](O)[C@@H](C)C/C(C)=C/C=C/[C@H](OC)[C@@H]([C@@H](C)[C@@H](O)[C@H](C)[C@@]2(O)C[C@@H](O)[C@H](C)[C@@H](C(C)C)O2)OC1=O [Bafilomycin]
Inhibition of DID-SFV de-quenching (in words) [1]: Strong inhibition of de-quenching

CC(C)COCC(CN(Cc1ccccc1)c1ccccc1)N1CCCC1 (stereo not shown) [Bepridil, Bepridil hydrochloride]
IC50 [2]: 9.5 µM | inhibition at 10 µM [2]: 91.2% | inhibition at 10 µM [3]: 97.8% | IC50 [3, 28]: 15.2 µM | IC50 ([3]; read-out: IC50 DENV-2 (24 h)): 12.1 µM | IC50 [4]: 14.6 µM | IC50 [5]: ~20 µM | IC50 [6]: ~20 µM | IC50 [7]: ~25.2 µM | IC50 [8]: 7.1 µM | IC50 [9]: ~12.4 µM | IC50 [10]: 10.4 µM | IC50 [11]: 6.9 µM | IC50 [12]: 8.2 µM | IC50 [13]: 800 nM | IC50 HIV [14]: No inhibition | IC50 HSV (Vero) [15]: No inhibition | IC50 [16]: 26.8 µM | Inhibition of DID-SFV de-quenching (in words) [1]: Intermediate levels of inhibition | Activity when added before SFV or 30 and 60 min after internalisation [17]: act exclusively before (or at the stage of) fusion | Time of Addition [17]: Before fusion | Viruses Inhibited [18]: Endosomal pH-dep. | TC50 SFV (7 h) [19]: 34.9 µM | TC50 SFV (7h) [19]: 34.9 mM | viability at 10 µM [20]: 71.3% | viability at 10 µM [21]: 48.7% | TC50 DENV-2 (7 + 17 h) [22]: ~48.8 µM | TC50 DENV-2 (24 h) [22]: ~23.4 µM

CCN(CC)CCCC(C)Nc1ccnc2cc(Cl)ccc12 (stereo not shown) [Chloroquine]
SFV E1 trimer formation [23]: prevented trimer formation

O=C(c1ccc(OCCN2CCCCC2)cc1)c1c(-c2ccc(O)cc2)sc2cc(O)ccc12 [Raloxifene, Raloxifene hydrochloride]
IC50 [2]: 15.1 µM | inhibition at 10 µM [2]: 87.7% | inhibition at 10 µM [3]: 80% | IC50 [3, 28]: 5.7 µM | IC50 ([3]; read-out: IC50 DENV-2 (24 h)): 9.8 µM | IC50 [4]: 30.6 µM | IC50 [5]: 8.8 µM | IC50 [6]: 5.3 µM | IC50 [8]: 7.8 µM | IC50 [9]: 3.9 µM | IC50 [10]: 12.7 µM | IC50 RABV [11]: No inhibition | IC50 H5N1 [12]: No inhibition | IC50 [13]: 1400 nM | IC50 HIV [14]: No inhibition | IC50 [15]: 23.5 µM | IC50 [16]: 20 µM | inhibition at 10 µM [24]: > 50% | Inhibition of DID-SFV de-quenching (in words) [1]: Intermediate levels of inhibition | Activity when added before SFV or 30 and 60 min after internalisation [17]: minor but reproducible decrease in activity | Time of Addition [17]: Before and after fusion | Viruses Inhibited [18]: Unclear pattern | TC50 SFV (7 h) [19]: >50 µM | TC50 SFV (7h) [19]: >50 mM | viability at 10 µM [20]: 92% | viability at 10 µM [21]: 60.4% | TC50 DENV-2 (7 + 17 h) [22]: 24.8 µM | TC50 DENV-2 (24 h) [22]: ~22.63 µM

CNc1ccc2oc(C[C@H]3O[C@@]4(CC[C@H]3C)O[C@H]([C@H](C)C(=O)c3ccc[nH]3)[C@H](C)C[C@H]4C)nc2c1C(=O)O [Calcimycin]
IC50 [2]: 0.6 µM | inhibition at 10 µM [2]: 91.4% | inhibition at 10 µM [3]: 100% | IC50 [3, 28]: 4.4 µM | IC50 ([3]; read-out: IC50 DENV-2 (24 h)): 0.38 µM | IC50 [4]: 2.1 µM | IC50 [5]: 4.3 µM | IC50 [7]: 17.1 µM | IC50 [8]: 0.4 µM | IC50 [9]: 1.45 µM | IC50 [10]: 0.1 µM | IC50 [11]: 0.7 µM | IC50 [12]: 0.4 µM | IC50 [13]: 500 nM | IC50 [14]: 2.5 µM | IC50 [15]: < 0.5 µM | Decrease of Renilla signal (protein synthesis) [25]: more than 50% | Inhibition of protein synthesis at lower concentrations [25]: lose their inhibitory activity on protein synthesis | Viruses Inhibited [18]: All tested | TC50 SFV (7 h) [19]: 4.1 µM | TC50 SFV (7h) [19]: 4.1 mM | TC50 DENV-2 (7 + 17 h) [26]: >50 µM | TC50 DENV-2 (24 h) [26]: 6.7 µM | viability at 10 µM [20]: 34.4% | viability at 10 µM [21]: 40%

CCCCc1oc2ccccc2c1C(=O)c1cc(I)c(OCCN(CC)CC)c(I)c1 [Amiodarone, Amiodarone hydrochloride]
inhibition at 10 µM [2]: 85.5% | inhibition at 10 µM [3]: 92.9% | Inhibition of DID-SFV de-quenching (in words) [1]: Intermediate levels of inhibition | Activity when added before SFV or 30 and 60 min after internalisation [17]: act exclusively before (or at the stage of) fusion | Time of Addition [17]: Before fusion | Viruses Inhibited [18]: Endosomal pH-dep. | TC50 DENV-2 (7 + 17 h) [22]: 40.6 µM | TC50 DENV-2 (24 h) [22]: ~25.5 µM

C=C1C(=O)O[C@H]2[C@H]1CC/C(C)=C/CC[C@@]1(C)O[C@@H]21 [Parthenolide]
% inhibition (SFV screen) ([2]; 10 µM): 98.23% | IC50 [2]: 3.3 µM | inhibition at 10 µM [2]: 101% | inhibition at 10 µM [3]: 91.2% | IC50 [3, 28]: 12.2 µM | IC50 ([3]; read-out: IC50 DENV-2 (24 h)): 7.5 µM | IC50 [4]: 3.2 µM | IC50 [5]: 10 µM | IC50 [6]: 15.8 µM | IC50 [7]: 6.1 µM | IC50 [8]: 6.4 µM | IC50 [9]: 5.6 µM | IC50 [10]: 2.6 µM | IC50 [11]: 3.8 µM | IC50 [12]: 19.4 µM | IC50 EBOV [13]: Toxic | IC50 [14]: 3.7 µM | IC50 HSV (Vero) [15]: No inhibition | IC50 [16]: 5 µM | Activity when added before SFV or 30 and 60 min after internalisation [17]: minor but reproducible decrease in activity | Time of Addition [17]: Before and after fusion | Viruses Inhibited [18]: Unclear pattern | TC50 SFV (7 h) ([19]; 7 h): 11.7 µM | TC50 SFV (7h) ([19]; 7 h): 11.7 mM | TC50 DENV-2 (7 + 17 h) [26]: 35.8 µM | TC50 DENV-2 (24 h) ([26]; 24 h): 11.9 µM | % viability (SFV screen) [27]: 74.22% | viability at 10 µM [20]: 56.8% | viability at 10 µM [21]: 71.4%

CCN(CC)Cc1cc(Nc2ccnc3cc(Cl)ccc23)ccc1O [Amodiaquine, Amodiaquine dihydrochloride dihydrate]
IC50 [2]: 8.5 µM | inhibition at 10 µM [2]: 73.3% | inhibition at 10 µM [3]: 92.1% | IC50 [3, 28]: 12.7 µM | IC50 ([3]; read-out: IC50 DENV-2 (24 h)): 17.2 µM | IC50 [4]: 11.3 µM | IC50 [5]: ~24.8 µM | IC50 [6]: ~25 µM | IC50 ZIKV [7]: No inhibition | IC50 [8]: 5.3 µM | IC50 [9]: 4.2 µM | IC50 [10]: 11.2 µM | IC50 [11]: 23.5 µM | IC50 [12]: 13.6 µM | IC50 [13]: 900 nM | IC50 HIV [14]: No inhibition | IC50 [15]: 28.2 µM | IC50 VACV [16]: No inhibition | Inhibition of DID-SFV de-quenching (in words) [1]: Intermediate levels of inhibition | Activity when added before SFV or 30 and 60 min after internalisation [17]: act exclusively before (or at the stage of) fusion | Time of Addition [17]: Before fusion | Viruses Inhibited [18]: Endosomal pH-dep. | TC50 SFV (7 h) [19]: >50 µM | TC50 SFV (7h) [19]: >50 mM | viability at 10 µM [20]: 115% | viability at 10 µM [21]: 79% | TC50 DENV-2 (7 + 17 h) [22]: 44.2 µM | TC50 DENV-2 (24 h) [22]: 18.4 µM
